Experimental data from paper PMC10224444, “Novel Perspectives on the Design and Development of a Long-Acting Subcutaneous Raltegravir Injection for Treatment of HIV—In Vitro and In Vivo Evaluation” (Pharmaceutics, 2023).
“And” between values parts separate entries of the source, which are not always exact repeats. Equal values may be shown once.

Key:
[1] = In vitro release test in 50% PBS (pH 7.4, 34 °C), HPLC; type: physicochemical; conditions: for half-life: 50% PBS pH 7.4, 25 µM CTG probes, 100 µM prodrug 25, calculated as 0.69/kobs, read-out: t½ (half-life of payload release) (converted)
Procedure: (§1) Probes 14–15 and 20–21 stock solutions were prepared at 1000 µM (1 mM) in a 1:1 mixture of MeCN/water, followed by serial dilution with deionised water to give a 50 µM working concentration. Each experiment was run in triplicate after dilution of 0.5 mL of the stock solution with 0.5 mL of PBS (pH 7.4) or Tris buffer (pH 7.4), giving a final assay concentration of 25 µM for the probes. The samples were incubated at 34 °C to mimic the conditions found in SC tissue. Every day, a 2 µL aliquot of each sample was subjected to HPLC analysis using an Agilent 1260 Infinity instrument, with conditions as follows. Column: Agilent ZORBAX Eclipse Plus C18 Rapid Resolution, 3.5 μm (4.6 × 100 mm), pore size (95 Å); column temperature (35 °C). The mobile phases were solvent A: 0.1% TFA in ultrapure H2O and solvent B: 0.1% TFA in MeCN. The injection volume was 2 μL and the flow rate was kept at 1.0 mL/min. The analysis was performed using a gradient elution of 5–100% of solvent B in solvent A over 9 min, then maintained for a further 1 min at two wavelengths: 254 nm and 214 nm. The retention times of CTG and probes 14–15 and 20–21 were 4.13, 4.27, 4.93, 5.55, and 5.71 min, respectively. A calibration curve for the free CTG fluorophore was constructed over the concentration range of 10–100 µM at pH 7.4. The data were fit by linear regression to the equation y = 14.615x − 0.067, where y is the peak area of the analyte and x is the analyte concentration (µM). The correlation coefficient (R2) was computed as 0.999, confirming the linearity of used method under the specified measured concentrations.
Likewise, a test solution of prodrug 25 was incubated in 50% PBS at 100 µM final concentration, and analysed using the same HPLC method but with detection at 254 nm only. A higher concentration of 25 was used due to its relatively weaker absorption at 254 nm, compared with CTG. The retention times of RAL and prodrug 25 were 4.47 and 5.55 min, respectively. A calibration curve of RAL was constructed over the range 50–1000 µM. The data were fit by linear regression as before to give the equation y = 5.1961x − 20.064, with a similar goodness of fit (R^2 ≥ 0.999).
(§2) In vitro Release assays for probes 14–15 and 20–21 were conducted using pH and temperature conditions similar to those of SC tissue (pH 7.4 and 34 °C). Test compounds were dissolved in either MeCN/PBS (1:1, pH 7.4) or MeCN/Tris buffer (1:1, pH 7.4) at 25 µM, then incubated at 34 °C. Aliquots were taken daily and analysed by HPLC and LC-MS until complete fluorophore release was achieved. HPLC was preferred over fluorometric-based assay to study the stability of the synthesised probes because of the bleaching effect that may occur to the fluorophore over the long analysing periods. Photobleaching is the inability of the fluorophore to fluoresce due to the fluorophore instability upon repeated exposure to light over long periods. It can be a particular problem for fluorescence-based assays, thereby rationalising the choice of HPLC in the current work.
Similarly to the assays above, prodrug 25 (100 µM) was incubated in 50% PBS at 34 °C, and aliquots analysed daily by HPLC and LC-MS until full RAL release was achieved.

[2] = In vitro release test in 50% Tris buffer (pH 7.4, 34 °C), HPLC; type: physicochemical; conditions: 25 µM probe
Procedure: as §1, §2

[3] = design: method as in PMID 33979164; conditions: pH 7.0, over 5 h; cited from earlier work
[4] = design: method as in PMID 33979164; conditions: cited from earlier work
[5] = design: method as in PMID 33979164; conditions: cited from earlier work; remark: listed apart in the source
[6] = Pharmacokinetic study after single SC injection in BALB/c mice; type: in vivo; conditions: mouse, plasma level of the dosed compound, single SC 30 mg/kg, male BALB/c mice, n = 3
Procedure: The pharmacokinetic profile of prodrug 25 was evaluated in mice, in a study undertaken at WuXi AppTec. Prodrug 25 was dissolved in a sterile vehicle of DMSO/Solutol HS15/water (10:10:80) to give a clear solution with a final concentration of 6 mg/mL. The same procedure was used to prepare a 6 mg/mL solution of RAL as a control. Six male BALB/c mice were used, each weighing 18–25 g and aged between 7–9 weeks (three per group). A single 30 mg/kg dose of prodrug 25 was administered to each animal in the treatment group (subcutaneously, in the thoracic region). Similarly, RAL (30 mg/kg) was administered to each animal in the control group. Blood samples were taken at the time points indicated below, up to the experiment endpoint (96 h).
For each animal, blood samples (30 μL each) were collected from the submandibular or saphenous vein over a period of 96 h, at the following time points: zero/pre-dose; then 0.25, 0.5, 1, 2, 3, 4, 5, 6, 24, 48, and 96 h. All samples were transferred into pre-chilled commercial K2EDTA tubes and placed on wet ice until processing for plasma, which was obtained by centrifugation at 4 °C and 3200× g for 10 min, within 30 min of sampling. The plasma samples were transferred to polypropylene tubes, snap-frozen on dry ice, and kept at −70 ± 10 °C until LC-MS/MS analysis.
An LC-MS/MS method was developed to measure the concentrations of prodrug 25 and RAL in the biological matrix. Two mobile phases were used: mobile phase A (0.025% NH4OH and 2 mM NH4OAc in 95:5 v/v water/MeCN) and mobile phase B (0.025% NH4OH and 2 mM NH4OAc in 5:95 v/v water/MeCN). A UPLC method was performed using an LC-MS/MS-BM Triple Quad 6500 plus system with an ACQUITY UPLC BEH C18 1.7 μm column (2.1 × 50 mm) at a flow rate of 0.65 mL/min. The assay time was 2.5 min, and the solvent B composition was as follows: 10–100% (0.2–1.4 min), 30% (1.41–1.7 min), 95% (2.0–2.4 min), and 10% (2.41–2.5 min). The retention times for the prodrug, RAL and the internal standards (tolbutamide and verapamil) were 0.76, 1.04, 0.66, and 0.97 min, respectively. Quantification was performed by monitoring the transition of m/z 835.3 [M+H]^+ to 457.2 for prodrug 25, representing the cyclisation of the linker with the amidic RAL such as in side-product 22; whereas for RAL, the transition m/z 445.2 [M+H]^+ to 361.2 was followed, representing the loss of the 2-methyl-1,3,4-oxadiazole moiety as the main fragmentation pathway. For the internal standards, the m/z transition from 455.2 [M+H]^+ to 164.9 was used for verapamil (corresponding to formation of the verapamil fragment [CH2CH2-(3,4-dimethoxy phenyl)]^+), and for tolbutamide, the transition of m/z of 271.1 [M+H]^+ to 155.1 was used, representing formation of the [CH3-Ph-SO2]^+ fragment. […] The method was linear over the measured standard concentrations for 25 and RAL. The mean plasma concentration was determined for 25 and RAL (as metabolite or control) at each sampling time point. Pharmacokinetic parameters were then calculated by non-compartmental analysis of plasma concentration/time profiles using the Phoenix WinNonlin 6.3 software. The computed parameters were as follows: peak plasma concentration (Cmax); the time over which the initial concentration is reduced to half (t½); area under the plasma concentration versus time curve from time zero to 96 h (AUC 0–96 h); and mean residence time from time zero to 96 h (MRT 0–96 h).
Since in vitro models are not fully predictive of in vivo pharmacokinetics, especially for prodrugs, assessment of these characteristics still relies on in vivo studies. Therefore, the pharmacokinetic profile of prodrug 25 was evaluated in mice. Compound 25 and the control (RAL) were dissolved in DMSO/Solutol HS15/water (10:10:80). For a single SC injection of 25 (30 mg/kg) in BALB/c mice (n = 3), the plasma concentrations of prodrug and released RAL were measured at the following time points: zero/pre-dose; then 0.25, 0.5, 1, 2, 3, 4, 5, 6, 24, 48, and 96 h. […]

[7] = 50% PBS, pH 7.4, 34 °C, 25 µM probe, 1 d
[8] = 50% PBS, pH 7.4, 34 °C, 25 µM probe

Row | half-life ([1]; 50% PBS buffer) [h] | Compound | half-life [1] [h] | CTG fluorophore released after 1 d [1, 7] [%] | CTG fluorophore released after 2 d [1, 8] [%] | CTG release after 1 d in 50% Tris buffer [2] [%] | time to maximal release of payload ([1]; 50% PBS, pH 7.4, 34 °C) [days] | also measured
1 | – | C#CCCCNCCCCCCOC(=O)OCOc1ccc2c(-c3ccc(C(=O)O)cc3C)c3ccc(=O)cc-3oc2c1.Cl [Compound 15, 6-(((((9-(4-Carboxy-2-methylphenyl)-3-oxo-3H-xanthen-6-yl)oxy)methoxy)carbonyl)oxy)-N-(pent-4-yn-1-yl)hexan-1-aminium chloride] | 47.5 | 29 | 50 | 86.2 | – | CTG fluorophore released after 10 d ([1]; 50% PBS, pH 7.4, 34 °C, 25 µM probe, 10 d): 98%
2 | – | CNCCCOC(=O)OCOc1c(-c2ccc(Oc3ccc(OC(F)(F)F)cc3)cc2F)c(C)nc2cc(OC)c(Cl)cc12 [Compound 2] | – | – | – | – | – | payload released over 5 h [3]: > 55%; oral bioavailability compared with the parent compound [4]: enhanced; aqueous solubility compared with the parent compound [5]: enhanced
3 | – | Cc1cc(C(=O)OC(C)(C)C)ccc1-c1c2ccc(=O)cc-2oc2cc(OCOC(=O)OCCCCCCNCCCc3cn(CCP(=O)(O)O)nn3)ccc12.Cl [Compound 21, 6-(((((9-(4-(Tert-Butoxycarbonyl)-2-Methylphenyl)-3-Oxo-3H-Xanthen-6-yl)Oxy)Methoxy)Carbonyl)Oxy)-N-(3-(1-(2-Phosphonoethyl)-1H-1,2,3-Triazol-4-yl)Propyl)Hexan-1-Aminium Chloride] | 75.6 | 20 | 33 | 80.9 | 15 | CTG fluorophore released after 15 d ([1]; 50% PBS, pH 7.4, 34 °C, 25 µM probe, 15 d): 98%
4 | 463 | Cc1nnc(C(=O)NC(C)(C)c2nc(C(=O)NCc3ccc(F)cc3)c(OCOC(=O)OCCCCCCNCCCc3cn(CCP(=O)(O)O)nn3)c(=O)n2C)o1 [Compound 25, 6-(((((4-((4-Fluorobenzyl)Carbamoyl)-1-Methyl-2-(2-(5-Methyl-1,3,4-Oxadiazole-2-Carboxa-Mido)Propan-2-Yl)-6-Oxo-1,6-Dihydropyrimidin-5yl)Oxy)Methoxy)Carbonyl)Oxy)-N-(3-(1-(2-Phosphonoethyl)-1H-1,2,3-Triazol-4-Yl)Propyl)Hexan-1-Aminium Chloride] | – | – | – | – | 45 | release kinetics (order) ([1]; 50% PBS, pH 7.4): first-order kinetics; RAL released after 1 d ([1]; 50% PBS, pH 7.4, 34 °C, 100 µM prodrug, 1 d): 8.4%; RAL released after 10 d ([1]; 50% PBS, pH 7.4, 34 °C, 100 µM prodrug, 10 d): 31.5%; RAL released after 45 d (plateau) ([1]; 50% PBS, pH 7.4, 34 °C, 100 µM prodrug, 45 d): 82% and 82.1%; degree of side-product (27) formation ([1]; 50% PBS, pH 7.4, 34 °C, hydrolysis of RAL oxadiazole, accounts for unreleased RAL): 15.2%; Cmax [6]: 4550 ng/mL; Tmax [6]: 0.25 h; AUC(0-t) ([6]; read-out: AUC 0–96 h): 3270 ng·h/mL; half-life ([6]; read-out: t½ (converted)): 0.85 h
5 | 40.6 | C#CCCCNCCCCCOC(=O)OCOc1ccc2c(-c3ccc(C(=O)O)cc3C)c3ccc(=O)cc-3oc2c1.Cl [Compound 14, N-(5-(((((9-(4-Carboxy-2-methylphenyl)-3-oxo-3H-xanthen-6-yl)oxy)methoxy)carbonyl)oxy)pentyl)pent-4-yn-1-aminium chloride] | – | 36 | 58 | 89.2 | – | CTG fluorophore released after 9 d ([1]; 50% PBS, pH 7.4, 34 °C, 25 µM probe, 9 d): 98%
6 | – | Cc1cc(C(=O)O)ccc1-c1c2ccc(=O)cc-2oc2cc(OCOC(=O)OCCCCCNCCCc3cn(CCP(=O)(O)O)nn3)ccc12.Cl [Compound 20, 5-(((((9-(4-Carboxy-2-Methylphenyl)-3-Oxo-3H-Xanthen-6-yl)Oxy)Methoxy)Carbonyl)Oxy)-N-(3-(1-(2-Phosphonoethyl)-1H-1,2,3-triazol-4-yl)Propyl)Pentan-1-Aminium Chloride] | 69.1 | 25 | 41 | 82.5 | – | CTG fluorophore released after 13 d ([1]; 50% PBS, pH 7.4, 34 °C, 25 µM probe, 13 d): 98%
